In patent publication US10570174B2, “Peptides for the treatment of malignant proliferative diseases” (Yissum Research Development Company of the Hebrew …, priority 2015, dated 2020):

How the values were obtained:
[1] = tested on: 4T1 mammary carcinoma cells; experiment: Lung metastasis in mice inoculated with 4T1 cells, YHI1 and derivatives vs control compounds (Example 6); type: in vivo, BALB/c mice; conditions: i.p., doses molar equivalent to 30 ng/kg YHI1, day 5 to day 16, 6 days a week
Experimental: YHI1 and its derivatives YHI2 and YHI4 were tested in comparison to a scrambled sequence (designated ‘YHI3’), IIIM1 and Arg-Pbf. All peptides were synthesized to over 98% purity.
Female BALB/c mice (9-10 weeks old) were iv injected with 4T1 cells (1×10^4 cells in 0.2 ml culture medium; medium was replaced with fresh medium one day prior to the injection). The tested compounds were ip administered on day 5 after tumor cell inoculation and continued daily thereafter 6 days a week until day 16, on which day the mice were sacrificed (in YHI3 group one animal died 14 days after cell injection before end of study). Each mouse received 10 injections during 11 consecutive days. A control group of mice received the same volume of saline (vehicle) injections. Each group contained 8 mice (n=8). Additional 4 mice remained naïve (without tumor cell injection and without any treatment), designated here as ‘pure control’. At the end of the experiments the mice were sacrificed and their lungs were removed, weighed and quantified for number of foci.

[2] = tested on: D122 cells (3LL Lewis lung carcinoma); experiment: Tumor growth in footpads of mice injected with D122 lung tumor cells, oral YHI1; type: in vivo, C57BL/6 mice
Experimental: (§1) YHI1 was synthesized by solid phase synthesis to over 95% purity. To assess the effect of YHI1 on local tumor growth, lung cancer cells were injected into footpads of mice to induce the formation of a topical tumor, and the tumor size was measured in mice treated with several dosages of YHI1 or with vehicle only. Two separate experiments were carried out using this model, one in which YHI1 and vehicle were administered orally and another in which YHI1 and vehicle were administered via intraperitoneal (i.p.) injection.
Female C57BL/6 mice were injected in the footpads with D122 cells (2×10^5 cells per mouse suspended in 50 μl PBS), a highly metastatic 3LL Lewis lung carcinoma. YHI1 (dissolved in saline) was orally administered at the indicated doses 8, 6, 4 and 1 day prior to cell injection and thereafter during 35 days, 3 times a week. Control mice received the vehicle (saline). Tumor size (diameter) was measured by a caliper. Baseline value (before cell injection) was subtracted from each measurement. Groups: control (n=10), and YHI1—0.1 mg/kg (n=9), 1 mg/kg (n=10), 5 mg/kg (n=8).
The results are expressed as mean±SE. p<0.05 for 5 mg/kg group versus control, for the period of 23-35 days (Mann-Whitney test).

[3] = tested on: D122 cells (3LL Lewis lung carcinoma); experiment: Tumor growth in footpads of mice injected with D122 lung tumor cells, i.p. YHI1; type: in vivo, C57BL/6 mice
Experimental: as §1
Female C57BL/6 mice were injected in the footpads with D122 cells (2×10^5 cells per mouse suspended in 50 μl PBS). YHI1 was i.p. administered at the indicated doses 8, 6, 4 or 1 day prior to cell injection and thereafter up to 34 days, 3 times a week. Control mice received the vehicle (saline). Tumor size (diameter) was measured by a caliper. Baseline value (before cell injection) was subtracted from each measurement. Groups: control (n=10), and YHI1—0.1 μg/kg (n=10), 1 μg/kg (n=10), 10 μg/kg (n=11), 100 μg/kg (n=9).
The results are expressed as mean±SE using the Kruskal-Wallis test and Dunnett's multiple comparison post test for statistical evaluation of the differences between the treated groups and control group at each time point.

D122 cells [4] = experiment: Lung metastasis in mice i.v. injected with D122 cells, treatment started before cell injection; type: in vivo, C57BL/6 mice; conditions: for reduction in Δ lung weight compared to control: day 35
Experimental: To examine the effect of YHI1 on cancer cell metastasis, lung metastasis was induced in mice, and the lung weight and the number of large metastases in mice treated with YHI1 or with vehicle only were measured.
Female C57BL/6 mice were i.v. injected with D122 cells (5×10^5 cells per mouse suspended in 100 μl PBS). YHI1 was i.p. administered at doses of 0.1 μg/kg body weight and 0.01 μg/kg body weight 8, 6, 4 and 1 day prior to cell injection and thereafter up to 35 days, 3 times a week. Control mice received the vehicle (saline).
Lung weight was determined on day 35 for each animal. Mean weight of lungs of healthy-non injected mice was subtracted from each value of the experimental and control groups, and the results are expressed as A lung weight. n=11, 10 and 9 mice for control, YHI1 0.1 and 0.01 μg/kg groups, respectively. Results are expressed as mean±SE using the Kruskal-Wallis test and Dunnett's multiple comparison post test for statistical evaluation of the differences in lung weight between the experimental groups and control mice. *p<0.05 for both 0.1 μg/kg and 0.01 μg/kg groups.
The number of large visible metastases in the lungs was next quantified. […] The results are expressed as mean±SE. *p<0.05 Mann Whitney test.
The lungs were then fixed, sectioned and stained with H&E for histopathological evaluation.

D122 cells [5] = experiment: Lung metastasis in mice i.v. injected with D122 cells, treatment started 7 days after cell injection; type: in vivo, C57BL/6 mice; conditions: i.p. 0.01 μg/kg from 7 days after cell injection
Experimental: To assess whether time of treatment affects the metastasis process, YHI1 was administered 7 days after tumor cell injection. Female C57BL/6 mice were i.v. injected with D122 cells (5×10^5 cells per mouse suspended in 100 μl PBS). YHI1 was i.p. administered at a dose of 0.01 μg/kg body weight (volume of 0.1 ml) 7 days after cell injection and thereafter up to 35 days, 3 times a week. Control mice received the vehicle (saline). Lung weight, number of tumors, lung histology (H&E) and survival were determined on day 35 after cell inoculation for each animal Lung weight was compared to a healthy lung removed from a naïve animal.

[6] = tested on: 4T1 mammary carcinoma cells; experiment: Lung metastasis in mice inoculated with 4T1 mammary carcinoma cells (Example 4); type: in vivo, BALB/c mice; design: Score (histological score of lung, per specimen): scale not given here
Experimental: Female BALB/c mice (9-10 weeks) were i.v. injected with mammary 4T1 tumor cells (1×10^4 cells in 0.2 ml culture medium). YHI1 was i.p. administered to the mice at doses of 3, 10 and 30 ng/kg body weight (0.1 ml) on day 5 after tumor cell inoculation and thereafter 6 days a week, until day 21, on which day the mice were sacrificed. Control mice received saline (vehicle) injections. Additional 3 mice remained naïve (“pure control”, no cell injection, no treatment). Each dose group contained 10 mice. At the end of the experiments the mice were sacrificed, the lungs of the mice were removed, weighed and quantified for the number of foci.

B16-F10 cells = experiment: Tumorigenicity of B16-F10 melanoma cells injected subcutaneously; type: in vivo, C57BL/6 mice; conditions: 17 days after cell injection
Experimental: To examine the effect of YHI1 on melanoma tumor cells, female C57BL/6 mice (6-7 weeks) were subcutaneously injected in the lateral thoracic-abdominal area with B16-F10 cells (2×10^5 cells in 0.1 ml culture medium). YHI1 was i.p. administered at doses of 30 and 100 ng/kg body weight (0.1 ml) on day 3 after tumor cell inoculation and thereafter until day 20 of tumor cell inoculation, 6 times a week. Control mice received saline (vehicle) injections. Each dose group contained 10 mice. Tumor size was measured along the experiment and was expressed as multiplication of length and width of the tumor.

With “H-Lys-Gly-His-Tyr-Arg(Pbf)-Ala-Glu-Val-Gly-OH (KGHYXAEVG; HELM PEPTIDE1{K.G.H.Y.[Cc1c(C)c(S(=O)(=O)NC(=N)NCCC[C@H](N[*:1])C(=O)[*:2])c(C)c2c1OC(C)(C)C2].A.E.V.G}$$$$V2.0; SMILES Cc1c(C)c(S(=O)(=O)NC(=N)NCCC[C@H](NC(=O)[C@H](Cc2ccc(O)cc2)NC(=O)[C@H](Cc2c[nH]cn2)NC(=O)CNC(=O)[C@@H](N)CCCCN)C(=O)N[C@@H](C)C(=O)N[C@@H](CCC(=O)O)C(=O)N[C@H](C(=O)NCC(=O)O)C(C)C)c(C)c2c1OC(C)(C)C2) [YHI2, KGHYR(Pbf)AEVG, derivative of YHI1]” the “lung weight compared to saline control” value [1] was “significant reduction” and the “number of tumors per lung compared to saline control” value [1] was “significant reduction”.
With “H-Lys-Gly-His-Tyr-Ala-Glu-Arg(NO2)-Val-Gly-OH (KGHYAEXVG; HELM PEPTIDE1{K.G.H.Y.A.E.[N=C(NCCC[C@H](N[*:1])C(=O)[*:2])N[N+](=O)[O-]].V.G}$$$$V2.0; SMILES CC(C)[C@H](NC(=O)[C@H](CCCNC(=N)N[N+](=O)[O-])NC(=O)[C@H](CCC(=O)O)NC(=O)[C@H](C)NC(=O)[C@H](Cc1ccc(O)cc1)NC(=O)[C@H](Cc1c[nH]cn1)NC(=O)CNC(=O)[C@@H](N)CCCCN)C(=O)NCC(=O)O) [YHI4, KGHYAER(NO2)VG, derivative of YHI1]” the “lung weight compared to saline control” value [1] was “significant reduction” and the “number of tumors per lung compared to saline control” value [1] was “reduction was not statistically significant”.
In the case of “H-Lys-Gly-His-Tyr-Ala-Glu-Arg(Pbf)-Val-Gly-OH (KGHYAEXVG; HELM PEPTIDE1{K.G.H.Y.A.E.[Cc1c(C)c(S(=O)(=O)NC(=N)NCCC[C@H](N[*:1])C(=O)[*:2])c(C)c2c1OC(C)(C)C2].V.G}$$$$V2.0; SMILES Cc1c(C)c(S(=O)(=O)NC(=N)NCCC[C@H](NC(=O)[C@H](CCC(=O)O)NC(=O)[C@H](C)NC(=O)[C@H](Cc2ccc(O)cc2)NC(=O)[C@H](Cc2c[nH]cn2)NC(=O)CNC(=O)[C@@H](N)CCCCN)C(=O)N[C@H](C(=O)NCC(=O)O)C(C)C)c(C)c2c1OC(C)(C)C2) [YHI1]”, the “reduction of tumor size, comparison between doses” value ([2]; oral, 5 mg/kg vs 1 mg/kg and 0.1 mg/kg) is reported as “more effective in reducing tumor size than the lower doses”, the “rate of tumor growth (tumor size, diameter)” value ([2]; oral, 0.1, 1, 5 mg/kg, 8, 6, 4, 1 day prior to cell injection and 3 times a week during 35 days) is reported as “reduced the rate of tumor growth” and the “reduction of tumor size, comparison between doses” value ([3]; 0.1 μg/kg vs higher doses up to 100 μg/kg) is reported as “more effective in reducing tumor size than higher doses”. For the same substance, the “rate of tumor growth (tumor size, diameter)” value ([3]; 0.1-100 μg/kg, 8, 6, 4, 1 day prior to cell injection and 3 times a week up to 34 days) was “reduced the rate of tumor growth”, the “number of large visible metastases in the lungs” value (D122 cells [4]; i.p. 0.01 μg/kg) was “totally eliminated visible metastases” and the “reduction in Δ lung weight compared to control” value (D122 cells [4]; i.p. 0.01 μg/kg) was 87%. For the same substance, the “lung histopathology (H&E)” value (D122 cells [4]; i.p. 0.01 μg/kg, representative section) was “tumor free”, the “reduction of number of large metastases compared to control” value (D122 cells [4]; i.p. 0.1 μg/kg) was 58% and the “reduction in Δ lung weight compared to control” value (D122 cells [4]; i.p. 0.1 μg/kg) was 78%. The “histological lung sections (H&E)” value (D122 cells [5]) was “only a single focus of viable tumor”, the “histological score of lung metastasis” value (D122 cells [5]) was “significantly reduced” and the “lung weight lower than control” value (D122 cells [5]; day 35) was 63%. For the same substance, the “number of large and medium sized metastases in the lungs” value (D122 cells [5]; day 35) was “significantly reduced”, the survival (D122 cells [5]; control 80% survival) was “full animal survival” and the “Description (blindly evaluated) of lung histology, per specimen” value ([6]; 30 ng/kg, individual specimens i-X) was “No metastases observed”. For the same substance, the “Score (histological score of lung, per specimen)” value ([6]; 30 ng/kg, individual specimens i-X, blindly evaluated) was 0, the “effect on foci number” value ([6]; i.p. 3 ng/kg) was “no effect” and the “effect on lung weight” value ([6]; i.p. 3 ng/kg, day 5 to day 21, 6 days a week) was “no effect”. The “reduction of number of lung foci vs control” value ([6]; i.p. 10 ng/kg) was 94%, the “reduction of lung weight vs control” value ([6]; i.p. 10 ng/kg, day 5 to day 21, 6 days a week) was 65% and the “reduction of number of lung foci vs control” value ([6]; i.p. 30 ng/kg) was 100%. For the same substance, the “histological score of lung metastasis (group)” value ([6]; i.p. 30 ng/kg vs control) was “significantly reduced”, the “reduction of lung weight vs control” value ([6]; i.p. 30 ng/kg, day 5 to day 21, 6 days a week) was 78% and the histological lung section ([6]; i.p. 30 ng/kg, representative section) was “normal lung tissue with no evidence of metastases”. For the same substance, the “effect on local tumor growth” value (B16-F10 cells; i.p. 30 ng/kg compared with 100 ng/kg) was “slightly weaker effect”, the “reduction of local tumor growth (tumor size, length x width)” value (B16-F10 cells; i.p. 100 ng/kg) was 55% and the “lung weight compared to saline control” value [1] was “significant reduction”. For the same substance, the “number of tumors per lung compared to saline control” value [1] was “significant reduction”.
